# Data reported in the supplement of paper PMC10307832.
# Assays:
# Experiment in all cases: relative viability (nuclei count vs DMSO), 5 days (fraction); higher = more cells survive
# [1] = compound: CC(O)(CS(=O)(=O)c1ccc(F)cc1)C(=O)Nc1ccc(C#N)c(C(F)(F)F)c1 [Bicalutamide] + CC(=O)Nc1cccc(-n2c(=O)n(C3CC3)c(=O)c3c(Nc4ccc(I)cc4F)n(C)c(=O)c(C)c32)c1 [Trametinib] (partner 0.02 µM)
# Procedure, shortened: (§1)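 Values are medians from duplicate plates. Each reflects relative viability, defined as the nuclei count of treated wells over that of vehicle wells. Lung cancer cell lines in 1536-well plates were pin-tool dosed one day after seeding with one drug alone or with a fixed anchor-drug dose plus five library-drug doses (not always all listed) in √10 steps, then fixed, stained and imaged at 4× after 5 days.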
# [2] = compound: CC(O)(CS(=O)(=O)c1ccc(F)cc1)C(=O)Nc1ccc(C#N)c(C(F)(F)F)c1 [Bicalutamide] + CS(=O)(=O)N1CCN(Cc2cc3nc(-c4cccc5[nH]ncc45)nc(N4CCOCC4)c3s2)CC1 [Pictilisib] (partner 1 µM)
# Procedure, shortened: as §1
# [3] = compound: C(C(=O)C(=O)O)Br [Bromopyruvate] + Cc1nc(Nc2ncc(C(=O)Nc3c(C)cccc3Cl)s2)cc(N2CCN(CCO)CC2)n1 [Dasatinib] (partner 0.075 µM)
# Procedure, shortened: as §1
# Bicalutamide + Foretinib = compound: CC(O)(CS(=O)(=O)c1ccc(F)cc1)C(=O)Nc1ccc(C#N)c(C(F)(F)F)c1 [Bicalutamide] + COc1cc2c(Oc3ccc(NC(=O)C4(C(=O)Nc5ccc(F)cc5)CC4)cc3F)ccnc2cc1OCCCN1CCOCC1 [Foretinib] (partner 0.25 µM)
# Procedure, shortened: as §1
Cell Line,relative viability ([1]; first compound 0.08 µM),relative viability ([1]; first compound 0.253 µM),relative viability ([1]; first compound 0.8 µM),relative viability ([1]; first compound 2.53 µM),relative viability ([2]; first compound 0.08 µM),relative viability ([2]; first compound 0.253 µM),relative viability ([2]; first compound 0.8 µM),relative viability ([2]; first compound 2.53 µM),relative viability ([3]; first compound 1 µM),relative viability ([3]; first compound 3.162 µM),relative viability ([3]; first compound 10 µM),relative viability ([3]; first compound 31.62 µM),relative viability ([3]; first compound 100 µM),relative viability (Bicalutamide + Foretinib; first compound 0.08 µM),relative viability (Bicalutamide + Foretinib; first compound 0.253 µM),relative viability (Bicalutamide + Foretinib; first compound 0.8 µM),relative viability (Bicalutamide + Foretinib; first compound 2.53 µM)
HCC-44,1.16,1.09,1.07,1.1,0.702,0.534,0.727,0.479,,,,,,,,,
HCC-827,0.58,0.459,0.552,0.547,1.01,0.85,1.1,1.04,0.249,0.366,0.329,0.326,0.317,1.09,0.881,1.04,1.01
NCI-H1623,,,,,,,,,0.574,0.487,0.672,0.597,0.576,0.883,0.884,0.918,0.869
NCI-H2405,0.674,0.606,0.78,0.638,0.478,0.421,0.556,0.368,0.242,0.218,0.209,0.19,0.231,1.04,1.03,1.11,1.01
PC-3 [JPC-3],0.756,0.737,0.697,0.719,0.76,0.56,0.822,0.723,1.06,1.03,1.06,1.02,1.1,1.01,1.02,1.07,1.11
NCI-H1651,0.836,0.773,0.932,0.83,0.618,0.429,0.686,0.471,0.409,0.462,0.527,0.411,0.428,0.89,0.734,1.01,0.884
HARA,0.942,,0.634,0.48,0.462,0.413,0.566,0.316,0.216,0.297,0.241,0.282,0.362,0.931,0.836,1.17,0.897
NCI-H1650,0.586,0.529,0.713,0.473,0.701,0.502,0.825,0.597,0.309,0.268,0.289,0.395,0.211,1.28,1.17,1.14,1.27
NCI-H1395,0.986,1.04,1.12,0.948,0.596,0.519,0.687,0.456,0.412,0.386,0.457,0.423,0.396,0.938,0.94,1.23,0.874
NCI-H1993,0.492,0.519,0.536,0.56,,0.764,0.744,0.671,0.826,0.766,0.841,0.652,0.617,0.738,0.7,0.866,0.971
LU99A,0.529,0.445,0.6,0.495,0.295,0.321,0.364,0.209,0.515,0.568,0.575,0.552,0.534,0.773,0.815,0.892,0.578
NCI-H1355,0.432,0.383,0.447,0.472,0.413,0.316,0.441,0.485,0.674,0.761,0.766,0.713,0.786,1.03,0.963,1.1,1.03
HCC-78,0.94,0.653,0.86,0.779,0.202,0.179,0.208,0.169,0.342,0.409,0.381,0.274,0.305,0.566,0.543,0.55,0.52
NCI-H1563,,,,,0.641,0.596,0.644,0.599,0.487,0.47,0.563,0.402,0.426,0.888,0.872,0.89,0.897
HCC-15,0.384,0.338,0.412,0.371,0.714,0.699,0.951,0.77,0.654,0.633,0.606,0.744,0.541,1.04,0.952,1.12,1.02
EKVX,0.319,0.31,0.359,0.283,0.456,0.366,0.434,0.455,0.433,0.547,0.578,0.689,0.628,0.749,0.757,0.95,0.752
NCI-H2126,0.546,0.523,0.545,0.626,0.494,0.468,0.511,0.43,0.659,0.594,0.611,0.622,0.587,1.21,1.19,1.36,1.18
LK-2,0.652,0.672,1.15,0.742,0.591,0.442,0.754,0.667,0.284,0.328,0.322,0.336,0.317,1.44,0.992,1.63,1.32
NCI-H1437,0.598,0.475,0.612,0.476,0.475,0.381,0.419,0.451,0.491,0.493,0.427,0.317,0.415,1.28,1.29,1.24,1.27
COR-L23,0.616,0.545,0.71,0.579,0.896,0.724,0.945,0.765,0.604,0.514,0.631,0.449,0.13,1.04,0.981,1.12,1.02
